Test results as given in publication PMC11785709, “Angelica gigas Nakai (Korean Dang-gui) Root Alcoholic Extracts in Health Promotion and Disease Therapy – active Phytochemicals and In Vivo Molecular Targets” (Pharmaceutical Research, 2025).
Read-outs that look alike come from different tables or passages of the source.

Assays:
carboxyesterase-2 (CES2) = conditions: cited from earlier work
HepG2 cells = system: HepG2 cells; design: method as in earlier work; conditions: free fatty acid mixture (oleate:palmitate = 2:1); cited from earlier work
[1] = system: pentobarbital-induced sleeping behaviors; design: method as in PMID 28066138; conditions: cited from earlier work
[2] = system: rat hypothalamic primary neuronal cells; design: method as in PMID 28066138; conditions: cited from earlier work
[3] = system: acetic acid-induced writhing; design: method as in PMID 19557373; conditions: cited from earlier work
[4] = design: method as in PMID 27080944, PMID 23364885, PMID 29121805; conditions: oral gavage dosing of AGN or D/DA; cited from earlier work
CLP microbial exposure = conditions: ip twice at 2 h and 4 h after CLP; cited from earlier work
PIK3CG = biological target: T1, PIK3CG (Homo sapiens, UniProt P48736); assay: KINOMEscan competition binding; conditions: initial screening, DOH 50 µM; read-out: Substrate bound % Control
T1 construct: purchased Eurofins DiscoverX (KINOMEscan)
Experimental: (§1) Two distinct platforms were used for initial screening with 50 µM DOH vs. DMSO vehicle. The first was the Eurofins DiscoverX KINOMEscan® (Freemont, CA USA) profiling platform, which employed a proprietary active site-directed competition binding assay to quantitatively measure interactions between a test compound (i.e., DOH) and 468 human protein kinases and disease relevant mutant variants either directly (sterically) or indirectly (allosterically) to prevent a kinase binding to its immobilized substrate (ligand). The top 8 hits were subjected to secondary screening verification by DOH concentration-titration for dissociation constant (Kd). For ROCK1 and ROCK2, DA was chosen for Kd titration as well, because it is ~ 10 × higher than D in peripheral circulation due to its resistance to hydrolysis by carboxyesterase-2 (Fig. 1C).

BIKE (BMP2K) = biological target: T2, BIKE (BMP2K) (Homo sapiens, UniProt Q9NSY1); assay: KINOMEscan competition binding; conditions: initial screening, DOH 50 µM; read-out: Substrate bound % Control
T2 construct: purchased Eurofins DiscoverX (KINOMEscan)
Experimental: as §1

CDC2L1 (CDK11B) = biological target: T3, CDC2L1 (CDK11B) (Homo sapiens, UniProt P21127); assay: KINOMEscan competition binding
T3 construct: purchased Eurofins DiscoverX (KINOMEscan)
Experimental: as §1

ERK4 (MAPK4) = biological target: T4, ERK4 (MAPK4) (Homo sapiens, UniProt P31152); assay: KINOMEscan competition binding
T4 construct: purchased Eurofins DiscoverX (KINOMEscan)
Experimental: as §1

GRK4 = biological target: T5, GRK4 (Homo sapiens, UniProt P32298); assay: KINOMEscan competition binding; conditions: initial screening, DOH 50 µM; read-out: Substrate bound % Control
T5 construct: purchased Eurofins DiscoverX (KINOMEscan)
Experimental: as §1

RIOK1 = biological target: T6, RIOK1 (Homo sapiens, UniProt Q9BRS2); assay: KINOMEscan competition binding; conditions: initial screening, DOH 50 µM; read-out: Substrate bound % Control
T6 construct: purchased Eurofins DiscoverX (KINOMEscan)
Experimental: as §1

PIK3C2G = biological target: T7, PIK3C2G (Homo sapiens, UniProt O75747); assay: KINOMEscan competition binding; conditions: initial screening, DOH 50 µM; read-out: Substrate bound % Control
T7 construct: purchased Eurofins DiscoverX (KINOMEscan)
Experimental: as §1

DYRK1B = biological target: T8, DYRK1B (Homo sapiens, UniProt Q9Y463); assay: KINOMEscan competition binding; conditions: initial screening, DOH 50 µM; read-out: Substrate bound % Control
T8 construct: purchased Eurofins DiscoverX (KINOMEscan)
Experimental: as §1

PIP5K1A = biological target: T9, PIP5K1A (Homo sapiens, UniProt Q99755); assay: KINOMEscan competition binding; conditions: initial screening, DOH 50 µM; read-out: Substrate bound % Control
T9 construct: purchased Eurofins DiscoverX (KINOMEscan)
Experimental: as §1

SRPK3 = biological target: T10, SRPK3 (Homo sapiens, UniProt Q9UPE1); assay: KINOMEscan competition binding; conditions: initial screening, DOH 50 µM; read-out: Substrate bound % Control
T10 construct: purchased Eurofins DiscoverX (KINOMEscan)
Experimental: as §1

[5] = biological target: T11, JAK3(JH1domain-catalytic) (Homo sapiens, UniProt P52333); assay: KINOMEscan competition binding; conditions: initial screening, DOH 50 µM; read-out: Substrate bound % Control
T11 construct: JAK3(JH1domain-catalytic); purchased Eurofins DiscoverX (KINOMEscan)
Experimental: as §1

YSK4 (MAP3K19) = biological target: T12, YSK4 (MAP3K19) (Homo sapiens, UniProt Q56UN5); assay: KINOMEscan competition binding; conditions: initial screening, DOH 50 µM; read-out: Substrate bound % Control
T12 construct: purchased Eurofins DiscoverX (KINOMEscan)
Experimental: as §1

LKB1 (STK11) = biological target: T13, LKB1 (STK11) (Homo sapiens, UniProt Q15831); assay: KINOMEscan competition binding
T13 construct: purchased Eurofins DiscoverX (KINOMEscan)
Experimental: as §1

[6] = biological target: T14, JAK2(JH1domain-catalytic) (Homo sapiens, UniProt O60674); assay: KINOMEscan competition binding; conditions: initial screening, DOH 50 µM; read-out: Substrate bound % Control
T14 construct: JAK2(JH1domain-catalytic); purchased Eurofins DiscoverX (KINOMEscan)
Experimental: as §1

AChE = system: AChE; design: method as in PMID 11374978; conditions: read-out: AChE inhibition IC50; cited from earlier work
CDK9 = CDK9 (Homo sapiens, UniProt P50750); assay: Reaction Biology kinase activity inhibition; format: biochemical; design: purchased Reaction Biology (Malvern, PA); conditions: activity screening, DOH at 50 μM
Text: The second screening was the Reaction Biology® (Malvern, PA) kinase activity inhibition tests, which screened for more than 600 protein kinases and lipid kinases, using miniaturized radioisotope-based assay platform with γ-^33P-ATP, followed by confirmation with IC50 kinase profiling service with 5 concentrations of test compound (i.e., DOH and DA) with curve fitting.

[7] = system: BOCCA and MCAO ischemic damage; design: method as in PMID 19801740; conditions: 20 mg/kg, pre or post-treatment; cited from earlier work
experimental sepsis = system: experimental sepsis; design: method as in PMID 20157398; conditions: ip 1 ~ 100 mg/kg before LPS/GalN or high-dose LPS (20 mg/kg); cited from earlier work
[8] = cited from earlier work
[9] = system: acute thermal pain models and CINP; design: method as in PMID 36249788; conditions: cited from earlier work
[10] = system: serotonin (5-hydroxytryptamine) level; design: method as in PMID 19801740; conditions: DOH gavage, highest at 10 mg DOH/kg in frontal cortex and striatum; cited from earlier work
[11] = read-out: Substrate bound % Control
[12] = validation Kd titration, 0.003 to 50 µM

T4 sequence (P31152 whole entry): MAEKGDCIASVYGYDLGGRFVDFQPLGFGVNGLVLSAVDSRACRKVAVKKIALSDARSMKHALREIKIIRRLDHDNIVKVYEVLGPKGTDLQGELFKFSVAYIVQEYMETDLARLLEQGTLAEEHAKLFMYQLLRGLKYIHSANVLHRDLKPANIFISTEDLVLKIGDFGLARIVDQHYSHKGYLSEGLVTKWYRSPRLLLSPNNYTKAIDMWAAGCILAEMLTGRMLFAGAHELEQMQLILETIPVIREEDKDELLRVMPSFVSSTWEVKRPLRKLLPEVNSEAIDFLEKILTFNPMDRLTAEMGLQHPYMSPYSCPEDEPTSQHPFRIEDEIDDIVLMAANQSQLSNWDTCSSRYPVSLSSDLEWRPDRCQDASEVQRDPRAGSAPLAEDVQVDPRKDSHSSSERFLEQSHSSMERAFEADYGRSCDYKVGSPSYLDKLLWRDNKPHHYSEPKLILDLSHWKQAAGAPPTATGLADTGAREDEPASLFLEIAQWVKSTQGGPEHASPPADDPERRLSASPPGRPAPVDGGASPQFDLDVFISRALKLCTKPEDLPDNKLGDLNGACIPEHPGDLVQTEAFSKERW
T3 sequence (P21127 whole entry): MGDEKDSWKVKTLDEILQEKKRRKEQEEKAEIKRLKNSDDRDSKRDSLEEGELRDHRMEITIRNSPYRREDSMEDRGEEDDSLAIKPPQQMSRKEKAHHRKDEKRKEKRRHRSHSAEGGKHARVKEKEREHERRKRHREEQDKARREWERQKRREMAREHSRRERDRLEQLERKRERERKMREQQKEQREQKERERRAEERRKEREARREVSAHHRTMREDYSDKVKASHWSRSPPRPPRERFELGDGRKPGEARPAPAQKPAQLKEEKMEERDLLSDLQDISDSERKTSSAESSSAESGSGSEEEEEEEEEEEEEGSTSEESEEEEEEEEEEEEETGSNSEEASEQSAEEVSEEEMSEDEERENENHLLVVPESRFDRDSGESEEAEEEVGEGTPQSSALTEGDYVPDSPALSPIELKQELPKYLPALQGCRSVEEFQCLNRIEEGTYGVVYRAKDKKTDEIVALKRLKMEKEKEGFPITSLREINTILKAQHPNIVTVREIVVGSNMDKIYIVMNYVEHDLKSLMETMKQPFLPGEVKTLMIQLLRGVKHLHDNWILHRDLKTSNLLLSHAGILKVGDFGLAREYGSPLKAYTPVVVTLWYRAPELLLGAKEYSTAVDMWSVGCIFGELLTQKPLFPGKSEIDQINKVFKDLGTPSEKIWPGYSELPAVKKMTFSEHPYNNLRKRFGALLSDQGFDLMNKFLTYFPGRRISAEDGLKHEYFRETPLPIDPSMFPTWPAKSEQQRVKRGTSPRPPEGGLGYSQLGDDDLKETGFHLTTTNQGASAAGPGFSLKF
T13 sequence (Q15831 whole entry): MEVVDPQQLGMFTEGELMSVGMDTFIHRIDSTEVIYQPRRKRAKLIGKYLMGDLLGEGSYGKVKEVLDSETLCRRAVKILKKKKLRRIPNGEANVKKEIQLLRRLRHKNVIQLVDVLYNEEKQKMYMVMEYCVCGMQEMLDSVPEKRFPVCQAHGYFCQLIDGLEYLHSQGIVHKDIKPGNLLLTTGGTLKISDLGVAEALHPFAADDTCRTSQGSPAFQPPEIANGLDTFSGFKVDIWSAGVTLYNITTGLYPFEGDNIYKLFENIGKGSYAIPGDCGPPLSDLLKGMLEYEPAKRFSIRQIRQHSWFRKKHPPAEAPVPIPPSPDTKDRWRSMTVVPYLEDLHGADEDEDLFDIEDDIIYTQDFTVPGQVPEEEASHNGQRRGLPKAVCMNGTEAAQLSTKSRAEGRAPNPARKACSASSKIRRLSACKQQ
T12 sequence (Q56UN5 whole entry): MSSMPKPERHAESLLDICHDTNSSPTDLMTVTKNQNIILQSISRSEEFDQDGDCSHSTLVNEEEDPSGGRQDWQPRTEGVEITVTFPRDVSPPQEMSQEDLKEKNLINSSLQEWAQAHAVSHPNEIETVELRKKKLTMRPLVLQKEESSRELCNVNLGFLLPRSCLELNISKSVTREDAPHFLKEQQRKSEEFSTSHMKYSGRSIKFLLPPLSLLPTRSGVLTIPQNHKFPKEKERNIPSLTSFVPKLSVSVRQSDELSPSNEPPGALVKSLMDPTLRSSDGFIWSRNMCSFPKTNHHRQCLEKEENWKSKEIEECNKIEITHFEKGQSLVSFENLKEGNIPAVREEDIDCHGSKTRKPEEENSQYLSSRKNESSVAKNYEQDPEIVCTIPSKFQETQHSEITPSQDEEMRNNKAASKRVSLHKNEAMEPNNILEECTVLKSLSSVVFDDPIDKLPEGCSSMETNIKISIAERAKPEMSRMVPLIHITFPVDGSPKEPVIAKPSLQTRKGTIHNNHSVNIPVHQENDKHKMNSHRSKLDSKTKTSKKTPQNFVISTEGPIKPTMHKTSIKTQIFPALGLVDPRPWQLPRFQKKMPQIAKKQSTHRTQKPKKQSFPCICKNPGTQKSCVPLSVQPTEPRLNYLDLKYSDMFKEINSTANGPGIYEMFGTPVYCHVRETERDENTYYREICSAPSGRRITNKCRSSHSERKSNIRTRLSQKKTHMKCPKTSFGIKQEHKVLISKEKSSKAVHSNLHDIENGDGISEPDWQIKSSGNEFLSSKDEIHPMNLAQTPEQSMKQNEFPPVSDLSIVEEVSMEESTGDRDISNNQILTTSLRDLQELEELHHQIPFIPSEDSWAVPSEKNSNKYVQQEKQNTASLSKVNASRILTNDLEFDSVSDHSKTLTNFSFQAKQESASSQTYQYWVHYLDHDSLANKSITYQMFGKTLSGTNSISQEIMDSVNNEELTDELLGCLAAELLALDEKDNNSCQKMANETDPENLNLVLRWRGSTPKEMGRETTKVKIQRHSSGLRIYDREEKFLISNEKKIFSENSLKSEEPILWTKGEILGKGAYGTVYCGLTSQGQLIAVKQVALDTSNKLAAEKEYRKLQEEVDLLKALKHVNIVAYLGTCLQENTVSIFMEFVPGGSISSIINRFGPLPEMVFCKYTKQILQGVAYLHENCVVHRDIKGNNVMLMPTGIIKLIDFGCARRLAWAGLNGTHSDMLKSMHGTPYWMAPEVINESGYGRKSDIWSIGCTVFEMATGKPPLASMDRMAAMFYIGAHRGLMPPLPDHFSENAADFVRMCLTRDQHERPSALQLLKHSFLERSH
T11 sequence (P52333 822-1111 limits assumed): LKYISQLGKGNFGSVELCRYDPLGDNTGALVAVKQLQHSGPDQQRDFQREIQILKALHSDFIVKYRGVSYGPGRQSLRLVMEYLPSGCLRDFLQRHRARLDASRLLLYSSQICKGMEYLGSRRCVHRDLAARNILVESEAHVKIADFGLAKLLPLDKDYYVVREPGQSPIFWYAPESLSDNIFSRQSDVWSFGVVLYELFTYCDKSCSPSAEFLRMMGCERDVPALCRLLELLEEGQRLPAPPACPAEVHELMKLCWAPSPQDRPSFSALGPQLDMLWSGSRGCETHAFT
T7 sequence (O75747 whole entry): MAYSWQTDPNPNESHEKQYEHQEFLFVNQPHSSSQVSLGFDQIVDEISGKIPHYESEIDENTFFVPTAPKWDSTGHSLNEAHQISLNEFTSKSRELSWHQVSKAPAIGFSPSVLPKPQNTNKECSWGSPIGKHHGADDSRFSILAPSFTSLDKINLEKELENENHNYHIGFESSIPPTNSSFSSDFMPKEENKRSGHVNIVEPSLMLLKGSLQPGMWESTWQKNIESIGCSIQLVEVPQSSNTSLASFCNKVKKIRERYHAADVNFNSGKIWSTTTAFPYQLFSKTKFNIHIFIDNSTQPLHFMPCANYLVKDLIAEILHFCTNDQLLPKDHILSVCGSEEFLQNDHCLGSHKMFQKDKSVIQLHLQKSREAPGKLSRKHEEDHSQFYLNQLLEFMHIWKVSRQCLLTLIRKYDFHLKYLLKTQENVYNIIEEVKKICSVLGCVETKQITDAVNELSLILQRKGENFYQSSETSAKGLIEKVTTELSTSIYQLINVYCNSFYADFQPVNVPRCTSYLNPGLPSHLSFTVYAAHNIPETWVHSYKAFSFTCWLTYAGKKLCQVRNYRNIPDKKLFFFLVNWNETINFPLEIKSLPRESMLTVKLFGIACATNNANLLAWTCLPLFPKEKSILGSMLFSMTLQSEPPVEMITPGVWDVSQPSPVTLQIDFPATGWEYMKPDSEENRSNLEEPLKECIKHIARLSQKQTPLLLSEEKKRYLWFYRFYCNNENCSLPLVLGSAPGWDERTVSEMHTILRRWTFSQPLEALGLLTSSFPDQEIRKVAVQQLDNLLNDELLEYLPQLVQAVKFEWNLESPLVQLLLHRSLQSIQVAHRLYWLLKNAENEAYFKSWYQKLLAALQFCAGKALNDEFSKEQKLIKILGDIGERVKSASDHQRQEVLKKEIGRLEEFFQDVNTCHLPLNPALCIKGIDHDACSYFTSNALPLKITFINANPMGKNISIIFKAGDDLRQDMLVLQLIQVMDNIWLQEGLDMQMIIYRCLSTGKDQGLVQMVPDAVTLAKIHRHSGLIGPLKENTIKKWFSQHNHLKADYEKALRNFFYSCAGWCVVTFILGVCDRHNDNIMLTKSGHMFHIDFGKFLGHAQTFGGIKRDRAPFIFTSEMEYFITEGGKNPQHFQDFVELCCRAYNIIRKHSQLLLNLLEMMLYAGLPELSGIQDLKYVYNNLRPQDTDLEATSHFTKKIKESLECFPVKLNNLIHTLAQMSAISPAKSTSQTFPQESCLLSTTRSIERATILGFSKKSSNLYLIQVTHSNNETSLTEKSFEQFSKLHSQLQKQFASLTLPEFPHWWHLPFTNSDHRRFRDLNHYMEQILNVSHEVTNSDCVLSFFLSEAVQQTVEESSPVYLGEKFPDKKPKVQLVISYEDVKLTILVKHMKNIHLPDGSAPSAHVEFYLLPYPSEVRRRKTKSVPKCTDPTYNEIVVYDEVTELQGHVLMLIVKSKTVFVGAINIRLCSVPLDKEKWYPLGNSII

## C/C=C(/C)C(=O)O[C@H]1Cc2cc3ccc(=O)oc3cc2OC1(C)C [DA, decursinol angelate]
carboxyesterase-2 (CES2)
  CES2 contribution to metabolism to DOH: not
HepG2 cells
  lipid accumulation: suppressed lipid accumulation
[1]; dose-dependent
  sleeping time by pentobarbital (42 mg/kg): prolonged sleeping time
[1]; oral DA 10, 25 and 50 mg/kg
  spontaneous locomotor activity: markedly suppressed spontaneous locomotor activity
[2]; DA 0.001, 0.01 and 0.1 µg/ml ≈ 0.003, 0.03 and 0.3 µM
  intracellular Cl- influx level: increased
[2]
  protein expression of GAD65/67 and GABAA receptor subtypes: increased the protein expression

## CC1(C)Oc2cc3oc(=O)ccc3cc2C[C@@H]1O [DOH, decursinol]
[3]; oral 50 mg/kg
  analgesic effect: efficacious
[3]; oral 25 or 10 mg/kg
  analgesic effect: not at 25 or 10 mg/kg
[4]
  DOH level achievable in the blood: double digit micromolar
CLP microbial exposure
  dose giving plateau of therapeutic benefit: ≥ 10 mg/kg
PIK3CG
  remaining binding at 50 µM: 46%
BIKE (BMP2K)
  remaining binding at 50 µM: 45%
CDC2L1 (CDK11B); [11]
  remaining binding at 50 µM: 19%
CDC2L1 (CDK11B); [12]
  Kd: > 50 µM
ERK4 (MAPK4); [11]
  remaining binding at 50 µM: 3.3%
ERK4 (MAPK4); [12]
  Kd: > 50 µM
GRK4
  remaining binding at 50 µM: 47%
RIOK1
  remaining binding at 50 µM: 50%
PIK3C2G
  remaining binding at 50 µM: 32%
DYRK1B
  remaining binding at 50 µM: 28%
PIP5K1A
  remaining binding at 50 µM: 47%
SRPK3
  remaining binding at 50 µM: 45%
[5]
  remaining binding at 50 µM: 45%
YSK4 (MAP3K19)
  remaining binding at 50 µM: 34%
LKB1 (STK11); [11]
  remaining binding at 50 µM: 7.6%
LKB1 (STK11); [12]
  Kd: > 50 µM
[6]
  remaining binding at 50 µM: 49%
AChE
  IC50: 28 µM
CDK9
  inhibition of kinase activity: no inhibition
[7]
  protection against ischemia stroke models: failed to protect
Experimental sepsis
  reduction of sepsis lethality ED50: ~ 10 mg/kg
[8]; conversion of D and DA to DOH
  AUCDOH/AUCtotal: 98.7%
[8]; read-out: mean peak concentration Cmax, 10 men and 10 women, 800 mg INM176 AGN oral
  Cmax: 2480 nM
[9]
  hypothermia and sedation (ataxia): dose dependent hypothermia
[9]; ip DOH 50 mg/kg
  antinociception in hot plate and tail-flick assays: replicated antinociception effects
  mechanical allodynia of mice with cisplatin-neuropathy (Von Fry test): reversed the mechanical allodynia
[9]; once-daily ip, hot plate, tail-flick and CINP mice
  time to tolerance development: ~ 10 days
[10]
  serotonin (5-hydroxytryptamine) level in brain: increase
